Data from patent US20130324707A1, “SYNTHETIC AMPHIPHILES FOR MEMBRANE PROTEIN MANIPULATION” (The Board of Trustees of the Leland Stanford Junior …, priority 2009, published 2013).
Marks after values point to notes of the source that are not given here.

Assays:
[1] = system: human β2 adrenergic receptor-T4-lyosome fusion protein (β2AR-T4L); experiment: Thermal stabilization (Tm) of β2AR-T4L in amphiphile, normalized peak ratio 341 nm/356 nm; design: Tm: unit: °C; conditions: for Tm: β2AR-T4L
Source text: FIG. 3 illustrates the results of comparing MNGs to MPAs at 10×CMC for stabilization efficacy of β2 adrenergic receptor-T4-lyosome fusion protein (β2AR-T4L), according to an embodiment of the invention.
FIG. 4 illustrates the results of comparing MNGs to MPAs at 50×CMC for stabilization efficacy of β2AR-T4L, according to an embodiment of the invention. Similar to FIG. 3, the horizontal dotted line extending from 50% on the y-axis in FIG. 4 indicates the melting temperature (Tm).
The branched amphiphiles of the invention have shown to have several advantageous properties that match or surpass those of many known amphiphiles. The branched nature provide improved stabilization, attributable to the dual saccharide chains, and improved solubilization, attributable to the dual hydrophobic tail groups. FIGS. 3 and 4 show a comparative study showing normalized peak ratios (341 nm/356 nm) for six different amphiphiles (illustrated in Schemes F and G) from 25° C. to 85° C., at 10×CMC and 50×CMC for human β2 adrenergic receptor-T4-lyosome fusion protein (β2AR-T4L).

β2AR = β2AR (Homo sapiens, UniProt P07550); experiment: Lipidic cubic phase (LCP) crystallization of agonist-bound β2AR; conditions: detergent present before incorporation into LCP
Source text: LCP methods have proven useful for crystallizing membrane proteins, including G protein-coupled receptors (GPCRs). However, the process of incorporating membrane proteins from a detergent solubilized state into LCP can lead to denaturation of the protein.

M3 muscarinic receptor = experiment: [3H]N-methylscopolamine binding to purified M3 muscarinic receptor in amphiphiles/detergents; conditions: for Binding (counts per minute (CPM)) of [3H]NMS compared to the use of DDM alone: upon addition of the amphiphile, HEPES pH 7.5, 100 mM NaCl
Method: For FIG. 5, the samples (DDM, MNG-28, and MNG-14) were combined with HEPES pH 7.5 buffer in a 100 mM NaCl solution. […] Therefore, the amphiphilic compounds described herein, such as the MNG amphiphiles, provide new options for enhancing the function and analysis of various isolated and/or purified proteins and receptors.

[2] = system: human β2 adrenergic receptor-T4-lyosome fusion protein (β2AR-T4L); experiment: Thermal stabilization (Tm) of β2AR-T4L in amphiphile, normalized peak ratio 341 nm/356 nm; design: Tm: unit: °C; conditions: 250 × CMC; for Tm: β2AR-T4L
[3] = system: R. capsulatus LHI-RC superassembly; experiment: R. capsulatus photosynthetic superassembly solubilization and purification assay (detergent classification); design: species or system Rhodobacter capsulatus; conditions: words printed in the Classification column instead of a class: behaviour of the amphiphile
Method: To begin the solubilization and purification process, frozen aliquots of R. capsulatus membranes were thawed, homogenized, and equilibrated to 32° C. for 30 minutes.
The membrane samples were allowed to incubate with the amphiphile for 30 minutes at 32° C. The solubilized material was then separated from the membrane debris in an ultracentrifuge at 315,000×g at 4° C. for 30 minutes. […] The tubes were then incubated and inverted for 1 hour at 4° C.
Once binding was complete, samples were loaded onto resin-retaining spin columns (e.g., emptied His Spin Trap™ columns; GE Healthcare). The columns were then inserted into a 2 mL microcentrifuge tube to retain the filtered solution during centrifugation. […] Finally, protein was eluted into a fresh microcentrifuge tube with three 0.2 mL elution buffer aliquots (this buffer was identical to binding buffer with the addition of 1 M imidazole).
The R. capsulatus LHI-RC complexes extracted and purified by this procedure contain large numbers of cofactors that have absorptions at distinct wavelengths, and each component of the LHI-RC superassembly has a different inherent stability outside the lipid bilayer. The solubilization protocol outlined above therefore provides a multifaceted assessment of the efficacy of conventional detergents and novel amphiphiles. UV-Vis absorption spectroscopy data obtained at various stages of the protocol allow one to determine which protein components have degraded at these stages. […] The disruption potential was measured as the yield of superassembly extracted during solubilization (or, alternatively and more precisely, as the absence of superassembly in the pellet from the spin following solubilization).
The stabilizing propensity was determined from the spectra of the purified protein.

[4] = Critical micelle concentration (CMC) by fluorescent dye uptake; type: physicochemical
Source text: The Critical Micelle Concentrations (CMCs) of compounds of the invention can be determined by standard techniques known to those of skill in the art. For example, CMCs of the carbohydrate-based amphiphiles described herein can be determined by monitoring uptake of a fluorescent dye (e.g., a dye such as 1,6-diphenylhexatriene) with increasing detergent concentration, monitored by fluorescence spectroscopy.

[5] = 10 × CMC, scan from 25° C. to 85° C.

Sequence of β2AR (P07550 whole entry): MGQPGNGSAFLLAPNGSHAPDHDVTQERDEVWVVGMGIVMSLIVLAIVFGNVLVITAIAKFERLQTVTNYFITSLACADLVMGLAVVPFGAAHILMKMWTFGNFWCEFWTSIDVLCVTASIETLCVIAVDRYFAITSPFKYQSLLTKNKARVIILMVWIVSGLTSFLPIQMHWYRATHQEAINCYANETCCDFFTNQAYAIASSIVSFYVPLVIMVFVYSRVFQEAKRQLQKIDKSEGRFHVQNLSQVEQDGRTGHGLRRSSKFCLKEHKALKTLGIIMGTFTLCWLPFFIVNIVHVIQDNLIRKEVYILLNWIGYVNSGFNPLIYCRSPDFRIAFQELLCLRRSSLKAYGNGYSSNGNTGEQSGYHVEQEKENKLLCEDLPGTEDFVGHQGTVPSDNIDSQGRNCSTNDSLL

## CCCCCCCCCCCCO[C@@H]1O[C@H](CO)[C@@H](O[C@H]2O[C@H](CO)[C@@H](O)[C@H](O)[C@H]2O)[C@H](O)[C@H]1O [DDM, dodecylmaltoside, reference compound]
[1]; [5]
  Tm: 63.5 (n = 4)*
[1]; 50 × CMC
  Tm: 63.0 (n = 4)
β2AR
  Outcome of LCP crystallization of agonist-bound β2AR: not sufficiently stable to survive the transition to LCP
M3 muscarinic receptor; M3 receptor purified from baculovirus infected insect cells using the detergent
  Specific binding to [3H]N-methylscopolamine: little specific binding
[2]
  Tm: 62.2 (n = 4)

## CC(C)(C)c1ccc(C(=O)NCC(CNC(=O)c2ccc(C(C)(C)C)cc2)(COC2OC(CO)C(O)C(O)C2O)COC2OC(CO)C(O)C(O)C2O)cc1 (centres unmarked) [GNG-3]
[3]
  Classification (entry in words): aggregation

## O=C(NCC(CNC(=O)C1CCCCC1)(COC1OC(CO)C(O)C(O)C1O)COC1OC(CO)C(O)C(O)C1O)C1CCCCC1 (centres unmarked) [GNG-5]
[3]
  Classification (entry in words): Insoluble

## CC(C)(C)c1ccc(OCC(COc2ccc(C(C)(C)C)cc2)(COC2OC(CO)C(O)C(O)C2O)COC2OC(CO)C(O)C(O)C2O)cc1 (centres unmarked) [GNG-8]
[3]
  Classification (entry in words): aggregation

## CCCCCCCC(CCCCCCC)(COC1OC(CO)C(O)C(O)C1O)COC1OC(CO)C(O)C(O)C1O (centres unmarked) [GNG-9]
[3]
  Classification (entry in words): limited
[4]
  CMC: 0.11 mM
  CMC (%): 0.0066%

## CCCCCCCCCCC(CCCCCCCCCC)(COC1OC(CO)C(OC2OC(CO)C(O)C(O)C2O)C(O)C1O)COC1OC(CO)C(OC2OC(CO)C(O)C(O)C2O)C(O)C1O (centres unmarked) [MNG-14]
[1]; 10 times CMC and 50 times CMC
  Stabilization of β2AR-T4L, comparison in words: best overall properties for stabilizing β2AR-T4L
[1]; 10 × CMC, relative to DDM
  ΔTm: +3.9
[1]; [5]
  Tm: 67.4 (n = 3)
[1]; 50 × CMC, relative to DDM
  ΔTm: +5.4
[1]; 50 × CMC
  Tm: 68.4 (n = 3)*
[1]; concentration not given, matches most favourable (*) Tm minus DDM 63.5
  ΔTm: +4.9
β2AR
  Outcome of LCP crystallization of agonist-bound β2AR: diffraction quality crystals were obtained
M3 muscarinic receptor
  Binding (counts per minute (CPM)) of [3H]NMS compared to the use of DDM alone: nine-fold higher
[4]
  CMC: 0.01 mM
  CMC (%): 0.001%
[2]; relative to DDM
  ΔTm: +4.6
[2]
  Tm: 66.8 (n = 3)

## CCCCCCCCCC(CCCCCCCCC)(COC1OC(CO)C(OC2OC(CO)C(O)C(O)C2O)C(O)C1O)COC1OC(CO)C(OC2OC(CO)C(O)C(O)C2O)C(O)C1O (centres unmarked) [MNG-28]
M3 muscarinic receptor
  Binding (counts per minute (CPM)) of [3H]NMS compared to the use of DDM alone: three-fold greater
[4]
  CMC: 0.018 mM
  CMC (%): 0.0018%
